Laboratory results published in publication PMC7321218, “Synthetic (E)-3-Phenyl-5-(phenylamino)-2-styryl-1,3,4-thiadiazol-3-ium Chloride Derivatives as Promising Chemotherapy Agents on Cell Lines Infected with HTLV-1” (Molecules, 2020).

What was measured:
[1] = system: MT2 cells (HTLV-1-infected cell line); test: MTT cell viability assay, MT2 cells; type: cell-based; conditions: Homo sapiens, 72 h incubation
Procedure: (§1) The 1 × 10^5 cells/mL were incubated with or without compounds 5a, 5b, 5c, 5d or DMSO (Sigma-Aldrich/Merck, St. Louis, MO, USA) at 37 °C in humidified atmosphere with a 5% CO2. After 72 h, the cellular viability was assessed using 5 mg/mL of 3-(4,5-dimethylthiazol-2-yl)-2,5-diphenyltetrazolium bromide (MTT, Sigma-Aldrich/Merck). Cells were incubated for 3 h, centrifuged, and formazan crystal was dissolved with DMSO. Plates were read on a Paradigma® spectrofluorometer (Molecular Devices, San Jose, CA, USA) at a 490 nm wavelength. Cell death was also evaluated using Propidium Iodide (Biolegend) exclusion after a 24 h culture under the same conditions described above. The fluorescence was examined by FACSCalibus flow cytometry (BD) and 10,000 events were acquired for the experimental data. Analysis was accomplished using Summit V4.0 or FlowJo software (Becton, Dickingson and Company, Santa Barbara, CA, USA).
(§2) Statistical analysis was performed by one-way analysis of variance (ANOVA) and means were compared using a Tukey post-test. The IC50 values were obtained using nonlinear regression. Data were analyzed using GraphPad Prism-5 software (GraphPad software, San Diego, CA, USA), and p ≤ 0.05 was considered statistically significant.

[2] = molecular target: T1, human serum albumin (HSA) (Homo sapiens, UniProt P02768); test: Circular dichroism of HSA (secondary structure); type: binding; conditions: CD, 310 K, 1.32 × 10^−5 M compound; for α-helix % of HSA at 222 nm: HSA alone 80.1%; for α-helix % of HSA at 208 nm: HSA alone 86.7%
T1 construct: three analogous domains (I, II, and III) having amino acid residues of 1–195, 196–383, and 384–585
Procedure: The CD spectra were recorded in the 200–250 nm range at 310 K for free serum albumin (1.00 × 10^−6 M) and for HSA with the higher concentration of each mesoionic used in the steady-state fluorescence studies (1.32 × 10^−5 M). Each spectrum was taken on the average of three scans. The obtained data were further converted into mean residue ellipticity (MRE) according to Equation (6):(6) MRE=θ/(10.n.l.Cp) where θ is the observed ellipticity (mdeg); n is the number of amino acid residues (585 to HSA), l is the length of the optical cuvette (1.0 cm), and Cp is the molar concentration of HSA (1.00 × 10^−6 M). The 5a–d induced helical content perturbation at 208 and 222 nm were calculated using Equation (7):(7) (A) α−helix%(−MRE208−4000)/(33000−4000)×100(B) α−helix%(−MRE222−2340)/(30300)×100 where MRE208 and MRE222 are the significant molar residual ellipticities (deg.cm^2/dmol) at 208 nm and 222 nm, respectively.

[3] = molecular target: T1, human serum albumin (HSA); test: Time-resolved fluorescence decay of HSA; type: binding; conditions: HSA 1.00 × 10^−5 M with 1.32 × 10^−5 M compound, ca 298 K
Procedure: The time-resolved fluorescence decay of a 3.0 mL solution of HSA (1.00 × 10^−5 M, in phosphate buffer solution-PBS) was measured in the absence and presence of the maximum concentration of each mesoionic used in the steady-state fluorescence studies (1.32 × 10^−5 M) at room temperature (ca 298 K).

[4] = system: C91/PL cells (HTLV-1-infected); test: MTT cell viability assay, C91/PL cells; type: cell-based; conditions: 72 h incubation
Procedure: as §1, §2

[5] = molecular target: T1, human serum albumin (HSA); test: Zeta potential of HSA (surface perturbation); type: binding; conditions: for ζ (zeta potential of HSA): HSA with 1.32 × 10^−5 M compound, HSA alone −9.15 ± 1.79; for Conductance: ZP measurement, HSA with compound
Procedure: All zeta potential (ZP) measurements were performed with 10 runs at 298 K and results were reported in terms of ZP ± SD. The ZP was measured for the HSA solution (1.0 × 10^−5 M in PBS solution) without and in the presence of the mesoionic compounds at the maximum concentration used in the steady-state fluorescence experiments (1.32 × 10^−5 M) at room temperature (ca. 298 K).

[6] = molecular target: T1, human serum albumin (HSA); test: Steady-state fluorescence quenching of HSA; type: binding; conditions: for Kd: Ka (modified Stern–Volmer binding constant); for ΔS°: van't Hoff, 296–310 K
Procedure: The steady-state fluorescence spectra were measured in the 290–450 nm range, at 296, 303, and 310 K, with the excitation wavelength at λ = 295 nm. To a 3.0 mL solution containing an appropriate concentration of HSA (1.00 × 10^−5 M), successive aliquots from a stock solution of each mesoionic under study (1.00 × 10^−3 M in DMSO) were added, with final concentrations of 0.17, 0.33, 0.50, 0.66, 0.83, 0.99, 1.15, and 1.32 × 10^−5 M. The addition was done manually by using a micro syringe. The inner filter correction for the observed steady-state fluorescence of HSA:mesoionic compounds was done in order to compensate for the absorption value of 5a–d at the excitation and emission wavelengths (295 and 340 nm, respectively) when applying Equation (1):(1) Fcor=Fobs10^[Aexc+Aem/2] where Fcor and Fobs are the corrected and observed steady-state fluorescence intensity values, respectively, while Aex and Aem represent absorbance values for each ligand at the excitation and emission wavelengths (λ = 295 and 340 nm, respectively).
The binding properties of each ligand toward HSA—Stern–Volmer quenching constant (KSV), bimolecular quenching rate constant (kq), modified Stern–Volmer binding constant (Ka), enthalpy change (ΔH°), entropy change (ΔS°), and Gibbs’ free energy change (ΔG°)—were calculated from the steady-state fluorescence quenching data according to Equations (2)–(5):(2) F0/F=1+kqτ0[Q]=1+KSV[Q] (3) F0/F0−F=1/f[Q]Ka+1/f (4) lnKa=−ΔH^0/RT+ΔS^0/R (5) ΔG^0=ΔH^0−TΔS^0 where F0 and F are the steady-state fluorescence intensities of HSA in the absence and presence of mesoionics, respectively. [Q] and τ0 are the ligand concentration and fluorescence lifetime, respectively, of the fluorophore in the absence of quencher (5.54 × 10^−9 s—experimental data, see Section 2.3.1). T, ƒ, and R are the temperature (296, 303, and 310 K), fraction of the initial fluorescence intensity that corresponds to fluorophore that is accessible to the quencher (f ≈ 1.0), and gas constant (8.3145 J/mol.K), respectively.

Jurkat cells = test: MTT cell viability assay, Jurkat cells; type: cell-based; conditions: Homo sapiens, 72 h incubation
Procedure: as §1, §2

T1 sequence (P02768 25-609): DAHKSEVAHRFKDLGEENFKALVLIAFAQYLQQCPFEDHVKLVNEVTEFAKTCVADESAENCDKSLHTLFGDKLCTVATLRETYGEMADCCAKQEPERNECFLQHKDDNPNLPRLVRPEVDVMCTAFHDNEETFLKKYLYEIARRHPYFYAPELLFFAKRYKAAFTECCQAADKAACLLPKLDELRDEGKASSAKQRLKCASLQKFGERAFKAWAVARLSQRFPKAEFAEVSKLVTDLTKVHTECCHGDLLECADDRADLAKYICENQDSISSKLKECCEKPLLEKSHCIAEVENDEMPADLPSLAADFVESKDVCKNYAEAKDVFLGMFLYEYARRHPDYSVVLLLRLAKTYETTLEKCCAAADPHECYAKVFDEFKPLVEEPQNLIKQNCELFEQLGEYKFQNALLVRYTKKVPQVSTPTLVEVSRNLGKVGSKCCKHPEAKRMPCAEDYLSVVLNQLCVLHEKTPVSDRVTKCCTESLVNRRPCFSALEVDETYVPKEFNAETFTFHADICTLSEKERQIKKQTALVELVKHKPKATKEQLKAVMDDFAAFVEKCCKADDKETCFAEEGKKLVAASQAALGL

Structure (SMILES)	IC50 [1] [µM]	α-helix % of HSA at 222 nm [2] [%]	α-helix % of HSA at 208 nm [2] [%]	Relative % of τ1 [3] [%]	Relative % of τ2 [3] [%]	τ1 (HSA fluorescence lifetime) [3] [ns]	τ2 (HSA fluorescence lifetime) [3] [ns]	IC50 [4] [µM]	ζ (zeta potential of HSA) [5] [mV]	Conductance [5]	KSV (Stern–Volmer quenching constant) ([6]; 296 K)	kq (bimolecular quenching rate constant) ([6]; 296 K) [M⁻¹ s⁻¹]	ΔG° ([6]; 296 K) [kcal/mol]	KSV (Stern–Volmer quenching constant) ([6]; 303 K)	kq (bimolecular quenching rate constant) ([6]; 303 K) [M⁻¹ s⁻¹]	ΔG° ([6]; 303 K) [kcal/mol]	KSV (Stern–Volmer quenching constant) ([6]; 310 K)	kq (bimolecular quenching rate constant) ([6]; 310 K) [M⁻¹ s⁻¹]	ΔG° ([6]; 310 K) [kcal/mol]	Kd ([6]; 296 K) [µM]	other results
Clc1ccc(Nc2n[n+](-c3ccccc3)c(/C=C/c3ccccc3)s2)cc1.[Cl-] [5c, (E)-3-Phenyl-5-(4′-chlorophenylamino)-2-styryl-1,3,4-thiadiazol-3-ium chloride]	6.15	78.8	83.8	33.0	67.0	1.68 ± 0.11	5.66 ± 0.16	4.5	−8.77 ± 1.52	29,622 µs	1.30 ± 0.03 × 10^5 M^−1	2.35e+13	-6.72	1.36 ± 0.04 × 10^5 M^−1	2.45e+13	-6.91	1.40 ± 0.03 × 10^5 M^−1	2.53e+13	-7.1	11.7	Kd ([6]; 303 K): 11 µM; Kd ([6]; 310 K): 10.4 µM; ΔS° [6]: 11.6 ± 0.1 × 10^−2 kJ.mol^−1K^−1; IC50 (Jurkat cells): 5.6 µM
Brc1ccc(Nc2n[n+](-c3ccccc3)c(/C=C/c3ccccc3)s2)cc1.[Cl-] [5d, (E)-3-Phenyl-5-(4′-bromophenylamino)-2-styryl-1,3,4-thiadiazol-3-ium chloride]	7.7	77.7	82.0	29.8	70.2	1.65 ± 0.10	5.37 ± 0.13	5.25	−8.69 ± 1.50	29,638 µs	1.45 ± 0.02 × 10^5 M^−1	2.61e+13	-6.67	1.54 ± 0.03 × 10^5 M^−1	2.79e+13	-6.86	1.60 ± 0.03 × 10^5 M^−1	2.89e+13	-7.03	11.5	Kd ([6]; 303 K): 11.1 µM; Kd ([6]; 310 K): 10.8 µM; ΔS° [6]: 10.6 ± 0.1 × 10^−2 kJ.mol^−1K^−1; IC50 (Jurkat cells): 2.27 µM
